From the NIST ThermoML archive (doi:10.1021/je100749m) come the findings set out here.

Data set [1] in a line: Molar enthalpy of transition or fusion. The conditions noted are these: Crystal; DSC.
The conditions of data set [2]: Crystal; DTA.

Numbers after ± are expanded uncertainties.

Turning to `O=C(O)CCCC(=O)O` [1,5-pentanedioic acid], the “Molar enthalpy of transition or fusion” value in data set [1] turned out to be 5 ± 0.148 kcal/mol. The Normal melting temperature in data set [2] was determined as 95.98 ± 0.53 °C.
Taken in the same sequence, the figures for `O=C(O)CCCCC(=O)O` [1,6-hexanedioic acid] were 8.46 ± 0.237 kcal/mol and 153.16 ± 0.53 °C.
Taken in the same sequence, the figures for `O=C(O)c1ccccc1` [benzoic acid] were 4.31 ± 0.131 kcal/mol and 122.93 ± 0.53 °C.
